Data as given in patent publication US5192766A, “N-acryloylpiperazine derivatives, their preparation and their use as PAF antagonists” (Sankyo Company, Limited, priority 1989, dated 1993).

How the values were obtained:
[1] = test system: blood platelet (PAF-induced aggregation); assay: Inhibitory effect in vitro against PAF-induced blood platelet aggregation; format: cell-based; details: Oryctolagus cuniculus, 5 min; rabbit platelet rich plasma; l-C16:0 PAF final 10^-8 ~3×10^-8 M; 5 min observation
Experimental: Inhibitory effect in vitro against PAF-induced blood platelet aggregation
Blood samples were drawn from a rabbit and one part by volume of each sample was immediately mixed with 1/9 part of a 3.8% w/v aqueous solution of sodium citrate. The samples were centrifuged at 150×G at room temperature for 15 minutes to obtain a platelet rich plasma (PRP) fraction from the upper layer. The remains were further centrifuged at 1,000×G for 15 minutes to obtain a platelet poor plasma (PPP) fraction from the upper layer. The PRP and PPP fractions were mixed appropriately, to obtain a sample in which the final count of blood platelets was adjusted to be 6×10^5 per ul. According to the method reported by Born et al. [G. V. R. Born et al.: J. Physiol. 62, 67-68 (1962)], blood platelet aggregation was determined by an increase in light transmission measured using an aggregometer. 3 ul of a solution of the test compound in dimethyl sulfoxide were added to 272 ul of PRP, and, after 1 minute, 25 ul of a physiological saline solution containing l-c16:0 PAF (at a final concentration of 10^-8 ~3×10^-8 M) were added. […] At the end of this value and the value of PAF-induced aggregation which was observed when dimethyl sulfoxide only was used without the addition of any test compound. IC50 values were calculated from the dose-response curve.

PAF-induced hypotension = assay: Inhibition of PAF-induced hypotension; format: in vivo, Wistar-Imamichi rats; details: Rattus norvegicus, iv, 1 min; anesthetized rats; l-C16:0 PAF 10 ng/kg i.v.; test compound i.v. cumulatively, 1 min before PAF; read-out: Inhibitory effect ID50
Experimental: Inhibition of PAF-induced hypotension
The test animals used were Wistar-Imamichi rats, each weighing from 350 to 450 g, anesthetized with Inactin (90 mg/kd, intraperitoneally).
Blood pressure was continuously measured throughout the experiment through a cannula inserted into the femoral artery. Each drug sample to be tested was intravenously injected through a cannula inserted into the femoral vein.
At first, l-C16:0 PAF was injected intravenously in amounts of 10 ng/kg at each injection at intervals of 5 minutes until the degree of the hypotensive response became constant. Then, each drug sample to be treated was intravenously injected. After one minute, the same dose of PAF was administered again. The drug sample was cumulatively administered. From its inhibition rate against the PAF-induced hypotensive effect, the 50% inhibitive dose (ID50) was determined, and is regarded as an index of PAF-antagonist activity. For administration, the PAF was dissolved in physiological saline solution containing 0.25% w/v of bovine serum albumin (BSA). The compounds under test were dissolved in dimethylformamide for use.
CV-3988 is disclosed in U.S. Pat. No. 4,408,052, and is structurally related to PAF itself.
In this Table, the compounds of the invention are identified by the number of the foregoing Example in which they were prepared.

| IC50 [1] | Compound | ED50 (PAF-induced hypotension) |
| --- | --- | --- |
| 220 nM | COc1cc(C(=O)N2CCN(C(=O)C=C(c3ccc(Cl)cc3)c3ccc(Cl)cc3)CC2)cc(OC)c1OC [Example 3, 1-[3,3-Bis(4-chlorophenyl)acryloyl]-4-(3,4,5-trimethoxybenzoyl)piperazine] | 0.048 mg/kg |
| – | COc1cc(C(=O)N2CCN(C(=O)C=C(c3cccs3)c3cccs3)CC2)cc(OC)c1OC [Example 4, 1-[3,3-Bis(2-thienyl)acryloyl]-4-(3,4,5-trimethoxybenzoyl)piperazine] | 0.074 mg/kg |
| – | COc1ccc(/C(=C\C(=O)N2CCN(C(=O)c3cc(OC)c(OC)c(OC)c3)CC2)c2ccccc2)cc1OC [Example 8, 1-[(Z)-3-(3,4-Dimethoxyphenyl)cinnamoyl]-4-(3,4,5-trimethoxybenzoyl)piperazine] | 0.058 mg/kg |
| – | COc1ccc(/C(=C\C(=O)N2CCN(C(=O)c3cc(OC)c(OC)c(OC)c3)CC2)c2ccc(Cl)cc2)cc1OC [Example 16, 1-[(Z)-3-(4-Chlorophenyl)-3-(3,4-dimethoxyphenyl)acryloyl]-4-(3,4,5-trimethoxybenzoyl)piperazine] | 0.074 mg/kg |
| 63 nM | COc1ccc(/C(=C/C(=O)N2CCN(C(=O)c3cc(OC)c(OC)c(OC)c3)CC2)c2cccc(Cl)c2)cc1OC [Example 17, 1-[(Z)-3-(3-Chlorophenyl)-3-(3,4-dimethoxyphenyl)acryloyl]-4-(3,4,5-trimethoxybenzoyl)piperazine] | 0.0083 mg/kg |
| – | COc1ccc(/C(=C\C(=O)N2CCN(C(=O)c3cc(OC)c(OC)c(OC)c3)CC2)c2cccc(Cl)c2)cc1OC [Example 18, 1-[(E)-3-(3-Chlorophenyl)-3-(3,4-dimethoxyphenyl)acryloyl]-4-(3,4,5-trimethoxybenzoyl)piperazine] | 0.026 mg/kg |
| – | COc1cc(C(=O)N2CCN(C(=O)C=C(c3ccc(F)cc3)c3ccc(F)cc3)CC2)cc(OC)c1OC [Example 25, 1[Bis(4-fluorophenyl)acryloyl]-4-(3,4,5-trimethoxybenzoyl)piperazine] | 0.052 mg/kg |
| 230 nM | COc1ccc(C(=CC(=O)N2CCN(C(=O)c3cc(OC)c(OC)c(OC)c3)CC2)c2ccc(OC)c(OC)c2)cc1OC [Example 28, 1-[Bis(3,4-dimethoxyphenyl)acryloyl]-4-(3,4,5-trimethoxybenzoyl)piperazine] | 0.039 mg/kg |
| 180 nM | COc1ccc(/C(=C\C(=O)N2CCN(C(=O)c3cc(OC)c(OC)c(OC)c3)CC2)c2ccc(OC)c(OC)c2)cc1 [Example 29, 1-[(E)-3-(3,4-Dimethoxyphenyl)-3-(4-methoxyphenyl)acryloyl]-4-(3,4,5-trimethoxybenzoyl)piperazine] | 0.048 mg/kg |
| 150 nM | COc1ccc(/C(=C/C(=O)N2CCN(C(=O)c3cc(OC)c(OC)c(OC)c3)CC2)c2ccc(OC)c(OC)c2)cc1 [Example 30, 1-[(Z)-3-(3,4-Dimethoxyphenyl)-3-(4-methoxyphenyl)acryloyl]-4-(3,4,5-trimethoxybenzoyl)piperazine] | 0.044 mg/kg |
| 43 nM | COc1ccc(/C(=C/C(=O)N2CCN(C(=O)c3cc(OC)c(OC)c(OC)c3)CC2)c2cccc(C(F)(F)F)c2)cc1OC [Example 33, 1-[(E)-3-(3,4-Dimethoxyphenyl)-3-(3-trifluoromethylphenyl)acryloyl]-4-(3,4,5-trimethoxybenzoyl)piperazine] | 0.0078 mg/kg |
| – | COc1ccc(/C(=C\C(=O)N2CCN(C(=O)c3cc(OC)c(OC)c(OC)c3)CC2)c2cccc(C(F)(F)F)c2)cc1OC [Example 34, 1-[(Z)-3-(3,4-Dimethoxyphenyl)-3-(3-trifluoromethylphenyl)acryloyl]-4-(3,4,5-trimethoxybenzoyl)piperazine] | 0.021 mg/kg |
| 110 nM | COc1ccc(/C(=C/C(=O)N2CCN(C(=O)c3cc(OC)c(OC)c(OC)c3)CC2)c2ccc(C)cc2)cc1OC [Example 35, 1-[(E)-3-(3,4-Dimethoxyphenyl)-3-(4-methylphenyl)acryloyl]-4-(3,4,5-trimethoxybenzoyl)piperazine] | 0.012 mg/kg |
| 220 nM | COc1ccc(/C(=C\C(=O)N2CCN(C(=O)c3cc(OC)c(OC)c(OC)c3)CC2)c2ccc(C)cc2)cc1OC [Example 36, 1-[(Z)-3-(3,4-Dimethoxyphenyl)-3-(4-methylphenyl)acryloyl]-4-(3,4,5-trimethoxybenzoyl)piperazine] | 0.039 mg/kg |
| 110 nM | COc1cc(C(=O)N2CCN(C(=O)/C=C(/c3cccc(C)c3)c3ccc(Cl)c(Cl)c3)CC2)cc(OC)c1OC [Example 37, 1-[(Z)-3-(3,4-Dichlorophenyl)-3-(3-methylphenyl)acryloyl]-4-(3,4,5-trimethoxybenzoyl)piperazine] | – |
| – | COc1ccc(/C(=C/C(=O)N2CCN(C(=O)c3cc(OC)c(OC)c(OC)c3)CC2)c2cccc(C)c2)cc1OC [Example 39, 1-[(E)-3-(3,4-Dimethoxyphenyl)-3-(3-methylphenyl)acryloyl]-4-(3,4,5-trimethoxybenzoyl)piperazine] | 0.008 mg/kg |
| 110 nM | COc1ccc(/C(=C\C(=O)N2CCN(C(=O)c3cc(OC)c(OC)c(OC)c3)CC2)c2cccc(C)c2)cc1OC [Example 40, 1-[(Z)-3-(3,4-Dimethoxyphenyl)-3-(3-methylphenyl)acryloyl]-4-(3,4,5-trimethoxybenzoyl)piperazine] | – |
| – | COc1cc(C(=O)N2CCN(C(=O)/C=C(\c3ccccc3)c3ccc4ccccc4c3)CC2)cc(OC)c1OC [Example 48, 1-[(E)-3-(2-Naphthyl)-3-phenylacryloyl]-4-(3,4,5-trimethoxybenzoyl)piperazine] | 0.012 mg/kg |
| 30 nM | CCc1ccc(/C(=C/C(=O)N2CCN(C(=O)c3cc(OC)c(OC)c(OC)c3)CC2)c2ccc(Cl)c(Cl)c2)cc1 [Example 52, 1-[(Z)-3-(3,4-Dichlorphenyl)-3-(4-ethylphenyl)acryloyl]-4-(3,4,5-trimethoxybenzoyl)piperazine] | 0.0084 mg/kg |
| 52 nM | CCCOc1ccc(/C(=C/C(=O)N2CCN(C(=O)c3cc(OC)c(OC)c(OC)c3)CC2)c2ccccc2)cc1 [Example 53, 1-[(E)-3-Phenyl-3-(4-propoxyphenyl)acryloyl]-4-(3,4,5-trimethoxybenzoyl)piperazine] | 0.0074 mg/kg |
| 30 nM | CCCOc1cccc(/C(=C/C(=O)N2CCN(C(=O)c3cc(OC)c(OC)c(OC)c3)CC2)c2cccc(Cl)c2)c1 [Example 70, 1-[(Z)-3-(3-Propoxyphenyl)-3-(3-chlorophenyl)acryloyl]-4-(3,4,5-trimethoxybenzoyl)piperazine] | 0.0033 mg/kg |
| 38 nM | CCCOc1ccc(/C(=C/C(=O)N2CCN(C(=O)c3cc(OC)c(OC)c(OC)c3)CC2)c2cccc(Cl)c2)cc1 [Example 71, 1-[(Z)-3-(4-Propoxyphenyl)-3-(3-chlorophenyl)acryloyl]-4-(3,4,5-trimethoxybenzoyl)piperazine] | 0.0074 mg/kg |
| 86 nM | COc1ccc(/C(=C/C(=O)N2CCN(C(=O)c3cc(OC)c(OC)c(OC)c3)CC2)c2cccc(Br)c2)cc1 [Example 73, 1-[(Z)-3-(4-Methoxyphenyl)-3-(3-bromophenyl)acryloyl]-4-(3,4,5-trimethoxybenzoyl)piperazine] | 0.0084 mg/kg |
| 58 nM | COc1ccc(/C(=C/C(=O)N2CCN(C(=O)c3cc(OC)c(OC)c(OC)c3)CC2)c2cccc(F)c2)cc1 [Example 74, 1-[(Z)-3-(4-Methoxyphenyl)-3-(3-fluorophenyl)acryloyl]-4-(3,4,5-trimethoxybenzoyl)piperazine] | 0.0055 mg/kg |
| – | COc1ccc(/C(=C/C(=O)N2CCN(C(=O)c3cc(OC)c(OC)c(OC)c3)CC2)c2c(Cl)cccc2Cl)cc1 [Example 79, 1-[(Z)-3-(4-Methoxyphenyl)-3-(2,6-dichlorophenyl)acryloyl]-4-(3,4,5-trimethoxybenzoyl)piperazine] | 0.0066 mg/kg |
| – | CCc1ccc(/C(=C/C(=O)N2CCN(C(=O)c3cc(OC)c(OC)c(OC)c3)CC2)c2cc(Cl)cc(Cl)c2)cc1 [Example 86, 1-[(Z)-3-(4-Ethylphenyl)-3-(3,5-dichlorophenyl)acryloyl]-4-(3,4,5-trimethoxybenzoyl)piperazine] | 0.015 mg/kg |
| – | CCOc1ccc(/C(=C/C(=O)N2CCN(C(=O)c3cc(OC)c(OC)c(OC)c3)CC2)c2cccc(F)c2)cc1 [Example 88, 1-[(Z)-3-(4-Ethoxyphenyl)-3-(3-fluorophenyl)acryloyl]-4-(3,4,5-trimethoxybenzoyl)piperazine] | 0.092 mg/kg |
